In ChEMBL document CHEMBL1143546, “Novel heterocyclic glucocorticoids: in vitro profile and in vivo efficacy” (Bioorg Med Chem Lett, 2005) one finds EC50, IC50 and inhibition data, which are given here for 14 molecules.

By EC50 is commonly meant the concentration that produces a half-maximal response. A high value points to lower potency in that assay. By IC50 is commonly meant the concentration at which inhibition is half-maximal. Read a high IC50 as a need for much substance. Usually inhibition stands for the drop in the measured response relative to a control, in per cent.

The target of assay [1] is T1, Glucocorticoid receptor (Mus musculus, UniProt P06537).
T1 sequence (P06537 whole entry): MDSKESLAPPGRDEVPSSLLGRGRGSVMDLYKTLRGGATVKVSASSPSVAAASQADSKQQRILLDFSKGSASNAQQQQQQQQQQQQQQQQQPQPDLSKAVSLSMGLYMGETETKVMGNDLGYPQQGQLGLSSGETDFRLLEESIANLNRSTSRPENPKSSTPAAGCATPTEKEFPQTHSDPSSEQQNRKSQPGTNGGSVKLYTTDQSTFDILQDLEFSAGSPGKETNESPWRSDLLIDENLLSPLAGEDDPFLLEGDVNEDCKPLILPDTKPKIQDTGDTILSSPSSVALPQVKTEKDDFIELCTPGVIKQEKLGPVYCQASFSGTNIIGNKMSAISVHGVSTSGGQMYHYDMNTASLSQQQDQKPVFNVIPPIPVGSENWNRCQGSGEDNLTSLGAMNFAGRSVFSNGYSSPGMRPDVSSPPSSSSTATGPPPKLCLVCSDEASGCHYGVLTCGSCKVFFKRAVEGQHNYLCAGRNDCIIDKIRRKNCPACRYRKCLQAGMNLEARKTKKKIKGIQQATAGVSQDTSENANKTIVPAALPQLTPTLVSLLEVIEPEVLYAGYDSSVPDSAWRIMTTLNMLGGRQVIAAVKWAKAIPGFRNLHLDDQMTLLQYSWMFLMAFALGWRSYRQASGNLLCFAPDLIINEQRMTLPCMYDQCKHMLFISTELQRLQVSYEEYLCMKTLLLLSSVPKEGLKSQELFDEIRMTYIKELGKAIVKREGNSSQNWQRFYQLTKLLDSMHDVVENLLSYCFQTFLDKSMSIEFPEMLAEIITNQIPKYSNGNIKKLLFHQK
Briefly: GR-mediated transrepression of IL-6 in peritoneal exudate cells harvested from C57BI/6 mice. The format is cell-based.

The target in assay [2] is T2, Glucocorticoid receptor (Homo sapiens, UniProt P04150).
T2 sequence (P04150 whole entry): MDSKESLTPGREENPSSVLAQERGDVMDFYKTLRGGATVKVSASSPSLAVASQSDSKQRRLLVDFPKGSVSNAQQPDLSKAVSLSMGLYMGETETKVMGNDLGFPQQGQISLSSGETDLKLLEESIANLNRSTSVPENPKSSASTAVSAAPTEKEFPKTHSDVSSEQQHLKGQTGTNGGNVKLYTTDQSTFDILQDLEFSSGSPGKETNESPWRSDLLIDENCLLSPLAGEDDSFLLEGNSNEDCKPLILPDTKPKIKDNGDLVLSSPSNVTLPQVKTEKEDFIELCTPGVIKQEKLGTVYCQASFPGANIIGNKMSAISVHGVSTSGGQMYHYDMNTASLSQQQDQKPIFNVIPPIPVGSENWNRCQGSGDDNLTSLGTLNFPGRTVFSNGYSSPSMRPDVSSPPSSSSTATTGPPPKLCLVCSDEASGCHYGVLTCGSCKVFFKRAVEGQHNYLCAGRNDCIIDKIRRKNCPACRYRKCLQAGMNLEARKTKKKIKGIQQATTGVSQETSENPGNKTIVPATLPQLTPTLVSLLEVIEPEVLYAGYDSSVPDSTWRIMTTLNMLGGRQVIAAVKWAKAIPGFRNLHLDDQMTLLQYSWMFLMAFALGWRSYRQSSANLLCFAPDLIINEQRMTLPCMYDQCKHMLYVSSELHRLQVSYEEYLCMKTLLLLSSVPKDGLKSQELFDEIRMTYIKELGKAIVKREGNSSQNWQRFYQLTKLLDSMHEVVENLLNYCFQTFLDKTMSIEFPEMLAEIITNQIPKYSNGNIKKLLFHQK
Briefly: GR-mediated transrepression of IL-6 in human A549 lung carcinoma cells. It is filed as functional, cell-based.

The target of assay [3] is T2, Glucocorticoid receptor. As to the kind of experiment: Inhibition of human glucocorticoid receptor alpha by displacement of [3H]dexamethasone. A general note: In a radioligand displacement assay an active substance lowers the binding of a labelled ligand.
Assay [4] has as its target T1, Glucocorticoid receptor. As to the kind of experiment: Inhibition of mouse glutamine synthetase by GR-mediated transactivation in C2C12 cells. The format is cell-based.
For assay [5], the target named is T2, Glucocorticoid receptor. Briefly: Inhibition of GR-mediated tyrosine amino transferase activity in human HepG2 cells. It is filed as cell-based.
In assay [6] the target is T3, Glucocorticoid receptor (Mus musculus) (UniProt P06537).
T3 sequence (whole entry): T1 sequence (P06537 whole entry)
As to the kind of experiment: Percent absolute inhibition of LPS-induced tumor necrosis factor alpha release in mice at 3 mg/kg dose. The format is organism-based. The arrangement: dose 3 mg/kg.

Assay [7] addresses T3, Glucocorticoid receptor (Mus musculus). Briefly: Percent inhibition of LPS-induced tumor necrosis factor alpha release in mice relative to prednisolone at 3 mg/kg dose. The format is organism-based. More on the design: dose 3 mg/kg.

As for `C[C@]12Cc3cnn(-c4ccc(F)cc4)c3C=C1CCC[C@@H]2[C@@H](O)c1ccoc1`, the 50% effective concentration (EC50) stood at 45 nM on Glucocorticoid receptor [1] and 2.7 nM on Glucocorticoid receptor [2]. The IC50 at Glucocorticoid receptor [3] amounted to 2.9 nM.

In turn, `COc1cc([C@H](O)[C@H]2CCCC3=Cc4c(cnn4-c4ccc(F)cc4)C[C@@]32C)cc(F)c1F` had an EC50 at Glucocorticoid receptor [1] of 15 nM.

For `C[C@]12Cc3cnn(-c4ccc(F)cc4)c3C=C1CCC[C@@H]2[C@](C)(O)c1ccsc1`, the results for the half-maximal effective concentration (EC50) at Glucocorticoid receptor [4], at Glucocorticoid receptor [1] and on Glucocorticoid receptor [2] were 8.3 nM, 5.2 nM and 0.96 nM, respectively.

As for `C[C@]12Cc3cnn(-c4ccc(F)cc4)c3C=C1CCC[C@@H]2[C@@H](O)c1csc2ccccc12`, the concentration for a half-maximal effect (EC50) is 54 nM at Glucocorticoid receptor [1] and 18 nM at Glucocorticoid receptor [2]. Moreover, the half-maximal inhibitory concentration (IC50) on Glucocorticoid receptor [3] worked out at 5.1 nM.

In the case of `C[C@]12Cc3cnn(-c4ccc(F)cc4)c3C=C1CCC[C@@H]2[C@@H](O)c1ccncc1`, the results for the 50% effective concentration (EC50) at Glucocorticoid receptor [1] and at Glucocorticoid receptor [2] were 215 nM and 38 nM, respectively. Moreover, the IC50 at Glucocorticoid receptor [3] turned out to be 23.2 nM.

As to `C[C@]12Cc3cnn(-c4ccc(F)cc4)c3C=C1CCC[C@@H]2[C@H](O)c1ccc(F)nc1`, the EC50 is 4440 nM at Glucocorticoid receptor [5], 23 nM at Glucocorticoid receptor [4], 5 nM at Glucocorticoid receptor [1] and 21 nM at Glucocorticoid receptor [2]. This molecule returned an IC50 on Glucocorticoid receptor [3] of 9.1 nM.

With `C[C@]12Cc3cnn(-c4ccc(F)cc4)c3C=C1CCC[C@@H]2[C@@H](O)c1ccc(F)nc1`, the EC50 on Glucocorticoid receptor [4] turned out to be 260 nM; at Glucocorticoid receptor [1] it was 12 nM; at Glucocorticoid receptor [2], 13 nM. For the same molecule, on Glucocorticoid receptor [3], the half-maximal inhibitory concentration (IC50) came to 13.6 nM.

In the case of `C[C@]12Cc3cnn(-c4ccc(F)cc4)c3C=C1CCC[C@@H]2[C@@H](O)c1cccs1`, the 50% effective concentration (EC50) at Glucocorticoid receptor [1] is 21 nM; on Glucocorticoid receptor [2] it was 37 nM. On Glucocorticoid receptor [3], this molecule returned an IC50 of 7.1 nM.

For the molecule `C[C@]12Cc3cnn(-c4ccc(F)cc4)c3C=C1CCC[C@@H]2[C@@H](O)Cc1ccc(F)cc1`, the 50% effective concentration (EC50) at Glucocorticoid receptor [4] is 17 nM; on Glucocorticoid receptor [1], 3.7 nM. This molecule returned an IC50 at Glucocorticoid receptor [3] of 4.6 nM.

Turning to `C[C@]12Cc3cnn(-c4ccc(F)cc4)c3C=C1CCC[C@@H]2[C@@H](O)c1ccc(Cl)s1`, the EC50 was 1070 nM at Glucocorticoid receptor [5], 34 nM at Glucocorticoid receptor [4], 17 nM at Glucocorticoid receptor [1] and 13 nM on Glucocorticoid receptor [2]. This molecule yielded a half-maximal inhibitory concentration (IC50) at Glucocorticoid receptor [3] of 7.6 nM.

The molecule `C[C@]12C=CC(=O)C=C1CC[C@@H]1[C@@H]2[C@@H](O)C[C@@]2(C)[C@H]1CC[C@]2(O)C(=O)CO` [PREDNISOLONE] came in with an EC50 at Glucocorticoid receptor [1] of 5.7 nM. Also, the inhibition in assay [6] was 71%; in assay [7] it was 100%.

As to `C[C@]12Cc3cnn(-c4ccc(F)cc4)c3C=C1CCC[C@@H]2[C@H](O)c1csc2ccccc12`, the EC50 on Glucocorticoid receptor [5] came out at 356 nM; on Glucocorticoid receptor [4] it was 3 nM; on Glucocorticoid receptor [1], 11 nM; at Glucocorticoid receptor [2], 6 nM. Besides, the IC50 on Glucocorticoid receptor [3] came out at 1.5 nM.

Consider `C[C@]12Cc3cnn(-c4ccc(F)cc4)c3C=C1CCC[C@@H]2[C@@H](O)c1cc(Cl)sc1Cl`, for which the concentration for a half-maximal effect (EC50) at Glucocorticoid receptor [1] was determined as 120 nM; at Glucocorticoid receptor [2] it was 31 nM. This molecule came in with a half-inhibitory concentration (IC50) at Glucocorticoid receptor [3] of 10.2 nM.

Take `C[C@]12Cc3cnn(-c4ccc(F)cc4)c3C=C1CCC[C@@H]2[C@@H](O)c1cc2ccccc2s1`: the concentration for a half-maximal effect (EC50) was determined as 1210 nM at Glucocorticoid receptor [4] and 19 nM at Glucocorticoid receptor [2].
